Laboratory results as given in US20260262643A1, “HERBICIDAL BENZOXAZINES” (FMC CORPORATION, priority 2022, published 2026).

How the values were obtained:
ryegrass, Italian [1] = test: Test C preemergence; type: in vivo, Lolium multiflorum
Outline: (§1)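 Seeds sown in loam soil–sand blend received a directed preemergence soil spray of test chemical in non-phytotoxic solvent with surfactant; postemergence plants (2–10 cm, one- to two-leaf stage) were sprayed with the same formulation. Greenhouse-held 10 days, then visually rated for injury versus untreated controls, 0 (no effect) to 100 (complete control).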

blackgrass [2] = test: Test C preemergence; type: in vivo, Alopecurus myosuroides
Outline: as §1

oat, wild [3] = test: Test C postemergence; type: in vivo, Avena fatua; conditions: 10 days, 0 to 100 scale (0 no effect, 100 complete control)
Outline: as §1

oat, wild [4] = test: Test C preemergence; type: in vivo, Avena fatua
Outline: as §1

soybean [5] = test: Test C postemergence; type: in vivo, Glycine max; conditions: 10 days, 0 to 100 scale (0 no effect, 100 complete control)
Outline: as §1

pigweed, palmer [6] = test: Test C preemergence; type: in vivo, Amaranthus palmeri
Outline: as §1

corn [7] = test: Test C preemergence; type: in vivo, Zea mays
Outline: as §1

ryegrass, Italian [8] = test: Test C postemergence; type: in vivo, Lolium multiflorum; conditions: 10 days, 0 to 100 scale (0 no effect, 100 complete control)
Outline: as §1

foxtail, giant [9] = test: Test C preemergence; type: in vivo, Setaria faberi
Text: (§2) Seeds of plant species selected from barnyardgrass (Echinochloa crusgalli), blackgrass (Alopecurus myosuroides), corn (Zea mays), foxtail, giant (giant foxtail, Setaria faberi), green foxtail (Setaria viridis), goosegrass (Eleusine indica), kochia (Bassia scoparia), oat, wild (wild oat, Avena fatua), pigweed, palmer (palmer amaranth, palmer pigweed, Amaranthus palmeri), Pigweed, Redroot (redroot pigweed, Amaranthus retroflexus), ragweed (common ragweed, Ambrosia artemisiifolia), ryegrass, Italian ([…] ryegrass, Lolium multiflorum), soybean (Glycine max), and wheat (Triticum aestivum) were planted into a blend of loam soil and sand and treated preemergence with a directed soil spray using test chemicals formulated in a non-phytotoxic solvent mixture which included a surfactant. At the same time, plants selected from these crops and weed species and also galium (catchweed bedstraw, Galium aparine) and horseweed (Erigeron canadensis) were planted in pots containing the same blend of loam soil and sand and treated with postemergence applications of test chemicals formulated in the same manner. Plants ranged in height from 2 to 10 cm and were in the one- to two-leaf stage for the postemergence treatment. Treated plants and untreated controls were maintained in a greenhouse for 10 days, after which time all treated plants were compared to untreated controls and visually evaluated for injury. Plant response ratings, summarized in Table C, are based on a 0 to 100 scale where 0 is no effect and 100 is complete control. A dash (-) response means no test result.

wheat [10] = test: Test C postemergence; type: in vivo, Triticum aestivum; conditions: 10 days, 0 to 100 scale (0 no effect, 100 complete control)
Outline: as §1

sedge, umbrella = test: Test D flooded paddy test; type: in vivo, Cyperus difformis; conditions: 250 g ai/ha, applied to paddy water, visual rating after 13 to 14 days, scale 0 to 100 (0 no effect, 100 complete control)
Outline: (§3)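 Compounds go straight into paddy water over 2-leaf plants in pots flooded to 3 cm. Greenhouse holding lasts 13 to 14 days. Injury is scored by eye against controls from 0 (none) to 100 (complete control).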

kochia [11] = test: Test C postemergence; type: in vivo, Bassia scoparia; conditions: 10 days, 0 to 100 scale (0 no effect, 100 complete control)
Outline: as §1

blackgrass [12] = test: Test C postemergence; type: in vivo, Alopecurus myosuroides; conditions: 10 days, 0 to 100 scale (0 no effect, 100 complete control)
Outline: as §1

ragweed [13] = test: Test C preemergence; type: in vivo, Ambrosia artemisiifolia
Outline: as §1

wheat [14] = test: Test C preemergence; type: in vivo, Triticum aestivum
Outline: as §1

rice = test: Test D flooded paddy test; type: in vivo, Oryza sativa; conditions: 250 g ai/ha, applied to paddy water, visual rating after 13 to 14 days, scale 0 to 100 (0 no effect, 100 complete control)
Outline: as §3

ragweed [15] = test: Test C postemergence; type: in vivo, Ambrosia artemisiifolia; conditions: 10 days, 0 to 100 scale (0 no effect, 100 complete control)
Outline: as §1

barnyardgrass [16] = test: Test C preemergence; type: in vivo, Echinochloa crusgalli
Outline: as §1

galium = test: Test C postemergence; type: in vivo, Galium aparine; conditions: 10 days, 0 to 100 scale (0 no effect, 100 complete control)
Outline: as §1

barnyardgrass [17] = test: Test D flooded paddy test; type: in vivo, Echinochloa crus-galli; conditions: 250 g ai/ha, applied to paddy water, visual rating after 13 to 14 days, scale 0 to 100 (0 no effect, 100 complete control)
Outline: as §3

barnyardgrass [18] = test: Test C postemergence; type: in vivo, Echinochloa crusgalli; conditions: 10 days, 0 to 100 scale (0 no effect, 100 complete control)
Outline: as §1

ducksalad = test: Test D flooded paddy test; type: in vivo, Heteranthera limosa; conditions: 250 g ai/ha, applied to paddy water, visual rating after 13 to 14 days, scale 0 to 100 (0 no effect, 100 complete control)
Outline: as §3

pigweed, palmer [19] = test: Test C postemergence; type: in vivo, Amaranthus palmeri; conditions: 10 days, 0 to 100 scale (0 no effect, 100 complete control)
Outline: as §1

foxtail, giant [20] = test: Test C postemergence; type: in vivo, Setaria faberi; conditions: 10 days, 0 to 100 scale (0 no effect, 100 complete control)
Text: as §2

horseweed = test: Test C postemergence; type: in vivo, Erigeron canadensis; conditions: 10 days, 0 to 100 scale (0 no effect, 100 complete control)
Outline: as §1

corn [21] = test: Test C postemergence; type: in vivo, Zea mays; conditions: 10 days, 0 to 100 scale (0 no effect, 100 complete control)
Outline: as §1

kochia [22] = test: Test C preemergence; type: in vivo, Bassia scoparia
Outline: as §1

soybean [23] = test: Test C preemergence; type: in vivo, Glycine max
Outline: as §1

[24] = 500 g ai/ha, preemergence, 0 to 100 scale (0 no effect, 100 complete control)
[25] = Preemergence, 125 g ai/ha, 0 to 100 scale, 0 no effect, 100 complete control

For `Cc1ncnn1-c1cc(C(=O)N2CC(C(F)(F)F)Oc3c(Cl)cccc32)ccn1` (racemic) [Compound 333], the “Ryegrass, Italian plant response rating” value (ryegrass, Italian [1]; [24]) was 40, the “Plant response rating, Ryegrass, Italian” value (ryegrass, Italian [1]; [25]) was 30 and the “Blackgrass plant response rating” value (blackgrass [2]; [24]) was 0. For the same compound, the “Plant response rating, Blackgrass” value (blackgrass [2]; [25]) was 0, the “Plant response rating, Oat, Wild” value (oat, wild [3]; 500 g ai/ha, postemergence) was 0 and the “Plant response rating, Oat, Wild” value (oat, wild [3]; Postemergence, 125 g ai/ha) was 0. For the same compound, the “Oat, Wild plant response rating” value (oat, wild [4]; [24]) was 0, the “Plant response rating, Oat, Wild” value (oat, wild [4]; [25]) was 0 and the “Plant response rating, Soybean” value (soybean [5]; 500 g ai/ha, postemergence) was 50. For the same compound, the “Plant response rating, Soybean” value (soybean [5]; Postemergence, 125 g ai/ha) was 50, the “Pigweed, Palmer plant response rating” value (pigweed, palmer [6]; [24]) was 30 and the “Plant response rating, Pigweed, Palmer” value (pigweed, palmer [6]; [25]) was 0. The “Corn plant response rating” value (corn [7]; [24]) was 0, the “Plant response rating, Corn” value (corn [7]; [25]) was 0 and the “Plant response rating, Ryegrass, Italian” value (ryegrass, Italian [8]; 500 g ai/ha, postemergence) was 10. For the same compound, the “Plant response rating, Ryegrass, Italian” value (ryegrass, Italian [8]; Postemergence, 125 g ai/ha) was 0, the “Foxtail, Giant plant response rating” value (foxtail, giant [9]; [24]) was 80 and the “Plant response rating, Foxtail, Giant” value (foxtail, giant [9]; [25]) was 0. For the same compound, the “Plant response rating, Wheat” value (wheat [10]; 500 g ai/ha, postemergence) was 10, the “Plant response rating, Wheat” value (wheat [10]; Postemergence, 125 g ai/ha) was 10 and the “Plant response rating, Sedge, Umbrella (Flood)” value (sedge, umbrella) was 0. The “Plant response rating, Kochia” value (kochia [11]; 500 g ai/ha, postemergence) was 50, the “Plant response rating, Kochia” value (kochia [11]; Postemergence, 125 g ai/ha) was 30 and the “Plant response rating, Blackgrass” value (blackgrass [12]; 500 g ai/ha, postemergence) was 20. The “Plant response rating, Blackgrass” value (blackgrass [12]; Postemergence, 125 g ai/ha) was 0, the “Ragweed plant response rating” value (ragweed [13]; [24]) was 0 and the “Plant response rating, Ragweed” value (ragweed [13]; [25]) was 0. The “Wheat plant response rating” value (wheat [14]; [24]) was 0, the “Plant response rating, Wheat” value (wheat [14]; [25]) was 0 and the “Plant response rating, Rice (Flood)” value (rice) was 0. For the same compound, the “Plant response rating, Ragweed” value (ragweed [15]; 500 g ai/ha, postemergence) was 10, the “Plant response rating, Ragweed” value (ragweed [15]; Postemergence, 125 g ai/ha) was 0 and the “Barnyardgrass plant response rating” value (barnyardgrass [16]; [24]) was 0. The “Plant response rating, Barnyardgrass” value (barnyardgrass [16]; [25]) was 0, the “Plant response rating, Galium” value (galium; 500 g ai/ha, postemergence) was 60 and the “Plant response rating, Galium” value (galium; Postemergence, 125 g ai/ha) was 0. The “Plant response rating, Barnyardgrass (Flood)” value (barnyardgrass [17]) was 0, the “Plant response rating, Barnyardgrass” value (barnyardgrass [18]; 500 g ai/ha, postemergence) was 10 and the “Plant response rating, Barnyardgrass” value (barnyardgrass [18]; Postemergence, 125 g ai/ha) was 10. The “Plant response rating, Ducksalad (Flood)” value (ducksalad) was 0, the “Plant response rating, Pigweed, Palmer” value (pigweed, palmer [19]; 500 g ai/ha, postemergence) was 20 and the “Plant response rating, Pigweed, Palmer” value (pigweed, palmer [19]; Postemergence, 125 g ai/ha) was 0. For the same compound, the “Plant response rating, Foxtail, Giant” value (foxtail, giant [20]; 500 g ai/ha, postemergence) was 40, the “Plant response rating, Foxtail, Giant” value (foxtail, giant [20]; Postemergence, 125 g ai/ha) was 20 and the “Plant response rating, Horseweed” value (horseweed; 500 g ai/ha, postemergence) was 0. For the same compound, the “Plant response rating, Horseweed” value (horseweed; Postemergence, 125 g ai/ha) was 0, the “Plant response rating, Corn” value (corn [21]; 500 g ai/ha, postemergence) was 20 and the “Plant response rating, Corn” value (corn [21]; Postemergence, 125 g ai/ha) was 10. The “Kochia plant response rating” value (kochia [22]; [24]) was 10, the “Plant response rating, Kochia” value (kochia [22]; [25]) was 0 and the “Soybean plant response rating” value (soybean [23]; [24]) was 0. The “Plant response rating, Soybean” value (soybean [23]; [25]) was 0.
